Some test systems named below: HCT-116 colon; HOP-62 NSCLC; IGROV1 ovarian; LOX IMVI melanoma; MDA-N; NCI-H460 lung; OVCAR-5 ovarian; RPMI-8226 leukemia; MALME-3M melanoma; SNB-75 CNS.
Holding throughout (test): growth of human tumour cells (NCI), 48 h

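These data come from cells grown in 96-well plates and exposed to compound for 48 hours at five concentrations. Abbreviation: GI50, concentration required for 50% inhibition of growth. TGI: total growth inhibition.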

With `COc1ccc(OC)c(CNc2ccc(O)c(C(=O)NCCc3ccc(F)cc3)c2)c1`, the TGI was 27.1 µM with HCT-116 colon; 21.4 µM in the assay on HOP-62 NSCLC; 20.9 µM with IGROV1 ovarian; 25.3 µM in the assay on LOX IMVI melanoma; 23 µM with MDA-N; over 100 µM with NCI-H460 lung. In addition, the TGI was determined as 64.9 µM in the assay on OVCAR-5 ovarian and 15.4 µM in the assay with RPMI-8226 leukemia.

In the case of `Cc1cc(NC2=NCCO2)c2c(c1C)CCCC2`, the TGI with HCT-116 colon is over 100 µM; in the assay on HOP-62 NSCLC, 32 µM; in the assay with IGROV1 ovarian, over 100 µM; in the assay on MALME-3M melanoma it was 25.9 µM; with NCI-H460 lung it was 63 µM; in the assay with OVCAR-5 ovarian it was 57.1 µM. Besides, the TGI in the assay on RPMI-8226 leukemia came out at 45.3 µM; in the assay on SNB-75 CNS it was 67.5 µM.

Take `Cc1ccc(S(=O)(=O)n2cc(-c3cnc(N)c(Br)n3)c3ccccc32)cc1`: the TGI in the assay on HOP-62 NSCLC is over 100 µM; with IGROV1 ovarian, 5.71 µM; in the assay with LOX IMVI melanoma, over 100 µM; with MDA-N, 0.836 µM; in the assay on NCI-H460 lung, over 100 µM; in the assay on OVCAR-5 ovarian it was over 77.1 µM. The TGI was 49.6 µM in the assay with RPMI-8226 leukemia and over 22.5 µM in the assay with SNB-75 CNS.

As to `CCCCNC(=S)/N=C/c1c(O)c2ccccc2oc1=O`, the TGI in the assay on HCT-116 colon, in the assay on HOP-62 NSCLC, with IGROV1 ovarian, in the assay on LOX IMVI melanoma, in the assay with MDA-N and in the assay on NCI-H460 lung was over 100 µM throughout. Moreover, the TGI with OVCAR-5 ovarian and in the assay with SNB-75 CNS was over 100 µM throughout.

As for `COc1ccc(C2C(C(=O)O)=C(COC(C)=O)Oc3cc4c(cc32)OCO4)cc1` (stereo not drawn), the TGI with HCT-116 colon, in the assay on HOP-62 NSCLC, in the assay on IGROV1 ovarian, in the assay on LOX IMVI melanoma, in the assay on MALME-3M melanoma and in the assay on NCI-H460 lung was over 100 µM throughout. For the same compound, the TGI in the assay on RPMI-8226 leukemia and in the assay on SNB-75 CNS was over 100 µM throughout.

In the case of `Oc1c(I)cc(I)cc1CNCCCN(Cc1ccccn1)Cc1ccccn1`, the GI50 in the assay on HOP-62 NSCLC is 1.02 µM; in the assay on IGROV1 ovarian it was 0.866 µM; in the assay on LOX IMVI melanoma, 0.926 µM; in the assay with MALME-3M melanoma, 0.873 µM; with NCI-H460 lung it was 1.2 µM; in the assay with OVCAR-5 ovarian it was 0.953 µM. Besides, the results for the GI50 with RPMI-8226 leukemia and with SNB-75 CNS were 1.34 µM and 0.836 µM, respectively. Further, the TGI in the assay on HOP-62 NSCLC is 2.35 µM; in the assay with IGROV1 ovarian, 1.65 µM; in the assay on LOX IMVI melanoma it was 1.77 µM; with MALME-3M melanoma it was 1.73 µM; in the assay on NCI-H460 lung, 2.78 µM; with OVCAR-5 ovarian, 2.11 µM. The TGI stood at 4.47 µM with RPMI-8226 leukemia and 4.32 µM in the assay with SNB-75 CNS.

In the case of `CC1NOC(NS(=O)(=O)c2ccc(N=Nc3c(O)c(C(=O)O)cc4ccccc34)cc2)C1C` (stereo not drawn), the TGI with HCT-116 colon, with HOP-62 NSCLC, with IGROV1 ovarian, in the assay with MALME-3M melanoma, in the assay with NCI-H460 lung and in the assay on OVCAR-5 ovarian was over 100 µM throughout. The TGI in the assay with RPMI-8226 leukemia and with SNB-75 CNS was over 100 µM each time.

On to `Cc1nnc(N)nc1/C=C\c1cccs1`, for which the TGI with HCT-116 colon was 35.5 µM; with HOP-62 NSCLC it was 38.5 µM; in the assay with IGROV1 ovarian, 28.7 µM; in the assay on LOX IMVI melanoma, over 100 µM; with MALME-3M melanoma, 29.4 µM; with NCI-H460 lung, 32.5 µM. The TGI in the assay on OVCAR-5 ovarian is 68.3 µM; with RPMI-8226 leukemia, 55.4 µM.

On to `Cc1cc2nc3n(c2cc1C)C(c1c(F)cccc1F)SC3` (stereo not drawn), for which the TGI in the assay on HCT-116 colon was 28.1 µM; with HOP-62 NSCLC, 72 µM; with IGROV1 ovarian it was over 10 µM; with LOX IMVI melanoma, 30.3 µM; in the assay on MALME-3M melanoma, 65.1 µM; in the assay with NCI-H460 lung it was 38.5 µM. The figures for the TGI in the assay on OVCAR-5 ovarian, with RPMI-8226 leukemia and in the assay on SNB-75 CNS were 43 µM, 58.5 µM and over 100 µM, respectively.

In the case of `CCN(CC)C(=O)c1c(N2CCOCC2)cc(N(CC)CC)oc1=O`, the TGI with HCT-116 colon, with HOP-62 NSCLC, in the assay with IGROV1 ovarian, with LOX IMVI melanoma, in the assay with MALME-3M melanoma and in the assay with NCI-H460 lung was over 100 µM throughout. The TGI in the assay on RPMI-8226 leukemia and with SNB-75 CNS was over 100 µM in each case.

Consider `NCCCn1c2c(c3ccc([N+](=O)[O-])cc3c1=O)C(=O)c1cc3c(cc1-2)OCO3`, for which the GI50 was over 100 µM in the assay with HCT-116 colon; 1.43 µM with HOP-62 NSCLC; 0.478 µM with IGROV1 ovarian; under 0.01 µM with LOX IMVI melanoma; 0.488 µM in the assay on MALME-3M melanoma; under 0.017 µM in the assay on RPMI-8226 leukemia. The TGI with HCT-116 colon is over 100 µM; in the assay with HOP-62 NSCLC, over 100 µM; in the assay with IGROV1 ovarian it was over 100 µM; in the assay with LOX IMVI melanoma it was 0.121 µM; in the assay with MALME-3M melanoma it was 2.82 µM; in the assay on RPMI-8226 leukemia, 2.14 µM.

With `NCCCCNCCCN`, the TGI in the assay with HCT-116 colon, in the assay with HOP-62 NSCLC, with IGROV1 ovarian, in the assay on LOX IMVI melanoma, in the assay on MALME-3M melanoma and in the assay with NCI-H460 lung was over 100 µM throughout. Moreover, the TGI in the assay with OVCAR-5 ovarian and in the assay on SNB-75 CNS was over 100 µM in each case.

Take `C[C@]12CCC(=O)C=C1CC[C@@H]1[C@@H]2C(=O)C[C@@]2(C)[C@H]1CC[C@]2(O)C(=O)CO`: the TGI in the assay on HCT-116 colon, in the assay with IGROV1 ovarian, in the assay with MALME-3M melanoma, in the assay with NCI-H460 lung, with RPMI-8226 leukemia and in the assay on SNB-75 CNS was over 100 µM each time.

As for `CC(=O)c1ccc(NC(=O)/C(=N\NC(N)=O)C(C#N)CC(C)(C)C=O)cc1` (stereo not drawn), the TGI with HCT-116 colon, in the assay on HOP-62 NSCLC, in the assay on IGROV1 ovarian, in the assay with LOX IMVI melanoma, with NCI-H460 lung and in the assay with OVCAR-5 ovarian was over 100 µM throughout. The TGI in the assay with RPMI-8226 leukemia and with SNB-75 CNS was over 100 µM each time.

As to `CCOC(OCC)C(CCc1ccccc1)c1c(N)nc(N)[nH]c1=O` (stereo not drawn), the TGI with HCT-116 colon, in the assay with HOP-62 NSCLC, with IGROV1 ovarian, in the assay on LOX IMVI melanoma, with MALME-3M melanoma and in the assay on NCI-H460 lung was over 100 µM throughout. The TGI was 73.3 µM in the assay with OVCAR-5 ovarian, over 100 µM in the assay on RPMI-8226 leukemia and over 100 µM with SNB-75 CNS.

For the compound `c1ccc(C(=NNc2nc3ccccc3[nH]2)c2ccccn2)nc1`, the TGI is 10.2 µM in the assay on HCT-116 colon; 2.62 µM with HOP-62 NSCLC; 2.64 µM in the assay with IGROV1 ovarian; 27.8 µM in the assay with LOX IMVI melanoma; over 100 µM in the assay with MDA-N; over 100 µM in the assay on NCI-H460 lung. The TGI in the assay with OVCAR-5 ovarian is 5.18 µM; in the assay with RPMI-8226 leukemia, 1.02 µM.

Regarding `Sc1nnc(-c2ccccc2Nc2ccccc2-c2nnc(S)n2-c2ccccc2)n1-c1ccccc1`, the TGI was over 100 µM in the assay on HCT-116 colon; over 100 µM with HOP-62 NSCLC; 42.2 µM with IGROV1 ovarian; over 100 µM in the assay with LOX IMVI melanoma; 85.3 µM with MDA-N; over 100 µM with NCI-H460 lung. For the same compound, the figures for the TGI with OVCAR-5 ovarian, in the assay with RPMI-8226 leukemia and in the assay on SNB-75 CNS were over 100 µM, 48 µM and 90.8 µM, respectively.

As to `Cc1ccc(NC(=O)c2cccc([N+](=O)[O-])c2O)c(C)c1`, the TGI in the assay with HCT-116 colon was over 100 µM; in the assay with HOP-62 NSCLC, over 100 µM; with IGROV1 ovarian, over 100 µM; in the assay with LOX IMVI melanoma it was over 100 µM; in the assay on MALME-3M melanoma, 17.9 µM; in the assay with NCI-H460 lung it was over 100 µM. For the same compound, the values for the TGI with OVCAR-5 ovarian, in the assay with RPMI-8226 leukemia and in the assay on SNB-75 CNS were over 100 µM, 92.7 µM and over 100 µM, respectively.

As to `O=C1c2ccccc2C2(c3ccc(Cl)cc3)NCc3ccccc3CN12` (stereo not drawn), the TGI in the assay on HCT-116 colon is 22.6 µM; with HOP-62 NSCLC it was 30.5 µM; with IGROV1 ovarian, 94.7 µM; in the assay with LOX IMVI melanoma, 29.7 µM; with MDA-N, over 100 µM; in the assay on NCI-H460 lung it was 91.5 µM. Also, the values for the TGI with OVCAR-5 ovarian, in the assay with RPMI-8226 leukemia and in the assay on SNB-75 CNS were 58.1 µM, 75.2 µM and over 100 µM, respectively.

For the compound `CC(=O)c1ccc2c(c1)oc(=O)n2CCN(C)C`, the TGI in the assay on HCT-116 colon, in the assay on HOP-62 NSCLC, in the assay with IGROV1 ovarian, with LOX IMVI melanoma, in the assay on MALME-3M melanoma and with NCI-H460 lung was over 100 µM throughout. Besides, the TGI in the assay on OVCAR-5 ovarian and in the assay with SNB-75 CNS was over 100 µM in each case.

On to `COC(=O)C1=C(OC(=O)/C(=C/c2ccc(Cl)cc2)c2ccccc2)C(C(=O)OC)[C@@]2(O)[C@@H](C(=O)OC)[C@H](C)C[C@@H]1[C@@H]2C(=O)OC` (stereo partly drawn), for which the TGI in the assay on HCT-116 colon, with HOP-62 NSCLC, with IGROV1 ovarian, in the assay with LOX IMVI melanoma, in the assay on MALME-3M melanoma and in the assay with NCI-H460 lung was over 100 µM each time. Besides, the TGI with OVCAR-5 ovarian, with RPMI-8226 leukemia and in the assay on SNB-75 CNS was over 100 µM throughout.

As for `O=C(c1ccc(Cl)cc1)N(C(=S)N1CCN(c2ccccn2)CC1)c1ccccc1`, the TGI in the assay on HCT-116 colon, in the assay with HOP-62 NSCLC, in the assay on IGROV1 ovarian, in the assay on LOX IMVI melanoma, with MALME-3M melanoma and in the assay on NCI-H460 lung was over 100 µM throughout. The TGI with OVCAR-5 ovarian, in the assay on RPMI-8226 leukemia and in the assay on SNB-75 CNS was over 100 µM each time.

The values are drawn from PubChem BioAssay (NCI).
